Test results from patent publication US5523314A, “Compounds useful as hypoglycemic agents and for treating Alzheimer's disease” (priority 1994, dated 1996).
Like-named read-outs stand apart in the source and are kept apart here.

Legend:
blood glucose level [1] = experiment: Hypoglycemic activity in normal fed rats (Table 2); type: in vivo, male Sprague Dawley rats; conditions: Rattus norvegicus, oral
Procedure: The procedure used in this test system is described below.
(§1) The desired dose level of each test formulation was administered to four rats by oral […] at the beginning of the experiment. Blood glucose levels were determined immediately before the first dose and at 3 and 5 hours thereafter by an enzymatic procedure employing glucose oxidase and peroxidase coupled with a chromogenic oxygen acceptor. A mean was taken of the 4 values obtained before the first dose and at the 3 and 5 hour intervals.

[2] = test system: plasma glucose concentration; experiment: Long-term hypoglycemic activity, compound in diet, A^vy /a mice (Table 4); type: in vivo, viable yellow mouse; conditions: 0.1% in diet, Male A^vy /a (Harlan)
Procedure: (§2) Finally, the long-term hypoglycemic activity of the compounds of the present invention was tested in yet another in vivo test system. This long-term test system entailed incorporating test compound into the test animal's diet at various concentrations (control animal's diet contained no test compound). Such diet was then fed to the test or control animals for either 14 or 21 days. Each test or control animal was then bled from the tail (200-400 μl sample of blood) at 0 (before diet started), 7, 14 and, if appropriate, 21 and 28 days after diet administration was started. Plasma samples were then obtained from each blood sample collected and the glucose concentration of such plasma samples was determined enzymatically.
(§3) Columns 4-8 provide the plasma glucose concentration at days 0, 7, 14 and, if appropriate, 21 and 28, respectively, for the animals tested. Glucose lowering was not associated with depressed diet consumption.

blood glucose level [3] = experiment: Hypoglycemic activity in obese diabetic mice (Table 1); type: in vivo, male viable yellow obese-diabetic mice; conditions: for response vs control in vivo at 10 mg/kg / response vs control in vivo at 25 mg/kg / response vs control in vivo at 50 mg/kg: Mus musculus, ip, intraperitoneal; for ability to lower blood glucose levels in mammals: compared to structurally similar compounds known in the art, in words
Method in brief: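 Male viable yellow obese-diabetic mice, six per group, dosed intraperitoneally once with compound in saline containing 2% Emulphor. Blood glucose measured by glucose oxidase before dosing and at 2 and 4 h. Values are the 2 h and 4 h glucose as % of pre-dose level.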

Human liver cathepsin D = molecular target: T1, Human liver cathepsin D (Homo sapiens, UniProt P07339); experiment: Cathepsin D inhibition, fluorometric assay (Tables 5 and 6); type: biochemical; conditions: for inhibition at 4.15 µg/mL (stock): Compound Stock Concentration 4.15 μg/ml; for inhibition at 8.3 µg/mL (stock): Compound Stock Concentration 8.3 μg/ml
T1 construct: purchased Athens Research and Technology, Athens, Ga; host or cells: human liver
T1 sequence (P07339 169-412 limits assumed): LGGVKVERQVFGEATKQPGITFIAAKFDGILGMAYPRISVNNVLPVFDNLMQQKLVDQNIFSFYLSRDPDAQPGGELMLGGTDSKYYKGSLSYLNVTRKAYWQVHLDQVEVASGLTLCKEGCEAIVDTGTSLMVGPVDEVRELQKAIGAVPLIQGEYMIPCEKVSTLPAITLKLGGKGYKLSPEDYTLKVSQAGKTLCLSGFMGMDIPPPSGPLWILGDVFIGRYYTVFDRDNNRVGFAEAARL
T1 sequence (P07339 65-161 limits assumed): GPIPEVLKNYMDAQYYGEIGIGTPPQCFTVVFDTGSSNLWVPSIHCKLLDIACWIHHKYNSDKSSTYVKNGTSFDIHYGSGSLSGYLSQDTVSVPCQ
Method in brief: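 Human liver cathepsin D at 500 ng/mL in 200 mM NaOAc pH 4.5, 150 mM NaCl, incubated 30 minutes at 37° C. Reaction stopped with microsomal leucine aminopeptidase (pH 8.0), which over two hours at 37° C releases AMC from cleavage products for fluorometric reading; aminopeptidase inhibition checked with Leu-pNA.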

blood glucose level [4] = experiment: Hypoglycemic activity in obese diabetic Zucker rats (Table 3); type: in vivo, obese diabetic Zucker rat (Zucker Diabetic Fatty Rat); conditions: oral
Procedure: as §1, with “Male Sprague Dawley rats (Charles River Laboratories) weighing 175-200 g were used in this test system. […] The” for “The”
The procedure used in this test system is the same as that described for the normal fed rat test system, above. The format of Table 3 is the same as that used in Table 2.

[5] = test system: plasma glucose concentration; experiment: Long-term hypoglycemic activity, compound in diet, ZDF rats (Table 4); type: in vivo, 8 week old male Zucker Diabetic Fatty rat
Procedure: as §2, §3

β-amyloid protein = β-amyloid protein production inhibition in 293 751 SWE and CHO 751 SWE cells, ELISA (Table 7); type: cell-based; conditions: Compound Stock Concentration 10.0 μg/ml; normalized for cytotoxicity
Procedure: Two cell lines (human kidney cell line 293 and Chinese hamster ovary cell line CHO) were stably transfected with the gene for APP751 containing the double mutation Lys-651-Met-652 to Asn-651-Leu-652 (APP-751 numbering) commonly called the Swedish mutation using the method described in Citron et al., Nature 360:672-674 (1992). The transfected cell lines were designated as 293 751 SWE and CHO 751 SWE, and were plated in Corning 96 well plates at 2.5×10^4 or 1×10^4 cells per well respectively in Dulbecco's minimal essential media (DMEM) plus 10% fetal bovine serum. […] These compound stocks were prepared by dissolving a sufficient quantity of the particular compound to be tested in DMSO such that various concentrations were obtained. After this pretreatment period, the conditioned media was removed and replaced with fresh conditioned media and the cells were incubated for an additional two hours.
After treatment, plates were centrifuged in a Beckman GPR at 1200 rpm for five minutes at room temperature to pellet cellular debris from the conditioned media. From each well, 100 μL of conditioned media were transferred into an ELISA plate precoated with antibody 266 [Seubert et al., Nature, 359:325-327 (1992)] and stored at 4° C. overnight prior to the completion of the ELISA assay the next day.
Cytotoxic effects of the compounds were measured by a modification of the method of Hansen et al., J. Immun. Meth. 119:203-210 (1989). To the cells remaining in the tissue culture plate, was added 25 μL of a 3-(4,5-dimethylthiazol-2-yl)-2,5-diphenyltetrazolium bromide (MTT) stock solution (5 mg/mL) to a final concentration of 1 mg/mL. Cells were incubated at 37° C. for one hour, and cellular activity was stopped by the addition of an equal volume of MTT lysis buffer (20% w/v sodium dodecylsulfate in 50% DMF, pH 4.7). Complete extraction was achieved by overnight shaking at room temperature. The difference in the OD562nm and the OD650nm was measured in a Molecular Devices UVmax microplate reader as an indicator of the cellular viability.
The results of the β-amyloid protein ELISA were fit to a standard curve and expressed as ng/mL β-amyloid protein peptide. In order to normalize for cytotoxicity, these β-amyloid protein results were divided by the cytotoxicity results and expressed as a percentage of the results from a drug-free control.

[6] = 3 hrs, read-out: Percent of Initial Blood Glucose Level After 3 hrs.
[7] = 5 hrs, read-out: Percent of Initial Blood Glucose Level After 5 hrs.
[8] = 2 h, 2 hrs, read-out: Percent of Initial Blood Glucose Level After 2 hrs.
[9] = 4 h, 4 hrs, read-out: Percent of Initial Blood Glucose Level After 4 hrs.
[10] = 0.1% in diet, day 0 (before diet started)

With CCOc1ccc(C=C2SC(=S)NC2=O)cc1OCC [Example 38, 5-[(3,4-diethoxyphenyl)methylene]-2-thioxo-4-thiazolidinone] the response vs control in vivo at 200 mg/kg (blood glucose level [1]; [6]) was 90%, the response vs control in vivo at 200 mg/kg (blood glucose level [1]; [7]) was 74% and the “Plasma Glucose Concentration” value ([2]; day 0 (before diet started)) was 340 mg/dL. The “Plasma Glucose Concentration” value ([2]; day 7) was 351 mg/dL, the “Plasma Glucose Concentration” value ([2]; day 14) was 328 mg/dL and the “Plasma Glucose Concentration” value ([2]; day 21) was 303 mg/dL. The “Plasma Glucose Concentration” value ([2]; day 28) was 331 mg/dL, the response vs control in vivo at 10 mg/kg (blood glucose level [3]; [8]) was 72 ± 4% and the response vs control in vivo at 25 mg/kg (blood glucose level [3]; [8]) was 69 ± 9%. For the same compound, the response vs control in vivo at 10 mg/kg (blood glucose level [3]; [9]) was 71 ± 6% and the response vs control in vivo at 25 mg/kg (blood glucose level [3]; [9]) was 65 ± 7%.
In the case of CCCCCOc1ccc(C=C2SC(=S)NC2=O)cc1OC [Example 45, 5-[(3-methoxy-4-pentoxyphenyl)methylene]-2-thioxo-4-thiazolidinone], the inhibition at 4.15 µg/mL (stock) (Human liver cathepsin D) is reported as 49.5%, the inhibition at 8.3 µg/mL (stock) (Human liver cathepsin D) is reported as 95% and the response vs control in vivo at 167 mg/kg (blood glucose level [1]; [6]) is reported as 61%. For the same compound, the response vs control in vivo at 167 mg/kg (blood glucose level [1]; [7]) was 63%, the “Plasma Glucose Concentration” value ([2]; day 0 (before diet started)) was 438 mg/dL and the “Plasma Glucose Concentration” value ([2]; day 7) was 338 mg/dL. For the same compound, the “Plasma Glucose Concentration” value ([2]; day 14) was 315 mg/dL, the “Plasma Glucose Concentration” value ([2]; day 21) was 287 mg/dL and the “Plasma Glucose Concentration” value ([2]; day 28) was 295 mg/dL. The response vs control in vivo at 25 mg/kg (blood glucose level [3]; [8]) was 93 ± 4%, the response vs control in vivo at 50 mg/kg (blood glucose level [3]; [8]) was 76 ± 7% and the response vs control in vivo at 25 mg/kg (blood glucose level [3]; [9]) was 87 ± 5%. For the same compound, the response vs control in vivo at 50 mg/kg (blood glucose level [3]; [9]) was 57 ± 3%, the “ability to lower blood glucose levels in mammals” value (blood glucose level [3]) was “surprising ability to lower blood glucose levels in mammals” and the “Percent of Initial Blood Glucose Level After 3 hrs.” value (blood glucose level [4]; 167 mg/kg) was 30%. The “Percent of Initial Blood Glucose Level After 5 hrs.” value (blood glucose level [4]; 167 mg/kg) was 20%, the “Plasma Glucose Concentration” value ([5]; 0.025% in diet, day 0 (before diet started)) was 467 mg/dL and the “Plasma Glucose Concentration” value ([5]; 0.025% in diet, day 7) was 451 mg/dL. For the same compound, the “Plasma Glucose Concentration” value ([5]; 0.025% in diet, day 14) was 452 mg/dL, the “Plasma Glucose Concentration” value ([5]; 0.025% in diet, day 21) was 517 mg/dL and the “Plasma Glucose Concentration” value ([5]; 0.1% in diet, day 21) was 285 mg/dL.
Work on CCCCCOc1ccc(C=C2SC(=S)NC2=O)cc1 [Example 47, 5-[(4-pentoxyphenyl)methylene]-2-thioxo-4-thiazolidinone] yielded an IC50 (Human liver cathepsin D) of 5.2 µM, an inhibition at 4.15 µg/mL (stock) (Human liver cathepsin D) of 60.5% and a response vs control in vivo at 200 mg/kg (blood glucose level [1]; [6]) of 82%. It also gave a response vs control in vivo at 200 mg/kg (blood glucose level [1]; [7]) of 73%, a response vs control in vivo at 50 mg/kg (blood glucose level [3]; [8]) of 99 ± 14% and a response vs control in vivo at 50 mg/kg (blood glucose level [3]; [9]) of 76 ± 8%. For the same compound, the “ability to lower blood glucose levels in mammals” value (blood glucose level [3]) was “surprising ability to lower blood glucose levels in mammals”, the “Percent of Initial Blood Glucose Level After 3 hrs.” value (blood glucose level [4]; 167 mg/kg) was 74% and the “Percent of Initial Blood Glucose Level After 5 hrs.” value (blood glucose level [4]; 167 mg/kg) was 66%.
For CCCCOc1ccc(C=C2SC(=S)NC2=O)cc1OCC [Example 56, 5-[(3-ethoxy-4-butoxyphenyl)methylene]-2-thioxo-4-thiazolidinone], the IC50 (Human liver cathepsin D) was 12.3 µM, the inhibition at 4.15 µg/mL (stock) (Human liver cathepsin D) was 73% and the “ability to inhibit cathepsin D” value (Human liver cathepsin D; compared to structurally similar compounds known in the art, in words) was “surprising ability to inhibit cathepsin D levels”. For the same compound, the response vs control in vivo at 150 mg/kg (blood glucose level [1]; [6]) was 79%, the response vs control in vivo at 150 mg/kg (blood glucose level [1]; [7]) was 65% and the response vs control in vivo at 10 mg/kg (blood glucose level [3]; [8]) was 94 ± 4%. For the same compound, the response vs control in vivo at 25 mg/kg (blood glucose level [3]; [8]) was 81 ± 8%, the response vs control in vivo at 50 mg/kg (blood glucose level [3]; [8]) was 78 ± 4% and the response vs control in vivo at 10 mg/kg (blood glucose level [3]; [9]) was 97 ± 4%. The response vs control in vivo at 25 mg/kg (blood glucose level [3]; [9]) was 75 ± 3%, the response vs control in vivo at 50 mg/kg (blood glucose level [3]; [9]) was 72 ± 3% and the “ability to lower blood glucose levels in mammals” value (blood glucose level [3]) was “surprising ability to lower blood glucose levels in mammals”. For the same compound, the “Percent of Initial Blood Glucose Level After 3 hrs.” value (blood glucose level [4]; 50 mg/kg) was 79% and the “Percent of Initial Blood Glucose Level After 5 hrs.” value (blood glucose level [4]; 50 mg/kg) was 66%.
Compound CCCCCOc1c(OC)cc(C=C2SC(=S)NC2=O)cc1OC [Example 70, 5-[(3,5-dimethoxy-4-pentoxyphenyl)methylene]-2-thioxo-4-thiazolidinone] has an IC50 (Human liver cathepsin D) of 5.4 µM, an inhibition at 4.15 µg/mL (stock) (Human liver cathepsin D) of 66% and an inhibition at 10 µg/mL (stock) (β-amyloid protein) of 38%. The “Plasma Glucose Concentration” value [5, 10] was 300 mg/dL, the “Plasma Glucose Concentration” value ([5]; 0.1% in diet, day 7) was 190 mg/dL and the “Plasma Glucose Concentration” value ([5]; 0.1% in diet, day 14) was 195 mg/dL.
Work on CC(C)(C)c1cc(C=C2SC(=S)NC2=O)cc(CSc2ccccc2)c1O [Example 71] yielded an IC50 (Human liver cathepsin D; 50% inhibition of cathepsin D) of 2.1 µM, an inhibition at 8.3 µg/mL (stock) (Human liver cathepsin D) of 94% and an inhibition at 10 µg/mL (stock) (Human liver cathepsin D; Compound Stock Concentration 10.0 μg/ml) of 76%. The inhibition at 10 µg/mL (stock) (β-amyloid protein) was 65%, the “Plasma Glucose Concentration” value [5, 10] was 311 mg/dL and the “Plasma Glucose Concentration” value ([5]; 0.1% in diet, day 7) was 237 mg/dL. The “Plasma Glucose Concentration” value ([5]; 0.1% in diet, day 14) was 232 mg/dL.
